In patent publication EP4707284A1, “HETEROCYCLIC COMPOUND AND USE THEREOF” (Otsuka Pharmaceutical Co., Ltd., priority 2023, dated 2024):

How the values were obtained:
in vitro = type: cell-based, human; details: human; 300 µmol/L, about 24 hours, PMA-differentiated HL-60 cells, LDH activity; no-treatment group 0%, cell lysis buffer-treated group 100%; read-out: cytotoxicity (%) Evaluation compound results
Method: (§1) An HL-60 cell line (human acute promyelocytic leukemia cells) was successively cultured in RPMI 1640 containing 20% fetal bovine serum (FBS) at 37°C in 95% atmosphere/5% CO2. Before evaluation, the cells were pre-cultured for about 72 hours in the presence of 10 nM phorbol 12-myristate 13-acetate (PMA) to induce macrophage-like differentiation.
(§2) Evaluation compounds were dissolved in DMSO to obtain 30 mmol/L solutions (or suspensions). Each DMSO solution was diluted 100-fold with RPMI 1640 containing 2% FBS (final concentration of the compound: 300 µmol/L) to obtain a treatment solution. The culture supernatant of the differentiated HL-60 cells was removed, and each treatment solution was added and cultured for about 24 hours, followed by cytotoxicity evaluation.
(§3) The activity of lactate dehydrogenase (LDH) was measured in the treatment solutions exposed to the cells for about 24 hours by using a commercial kit (Cytotoxicity LDH Assay Kit-WST, Dojindo Laboratories) and a plate reader (Tecan Infinite M1000). The obtained measurement values were used to calculate cytotoxicity (%) as comparison values for each evaluation compound-treated group, with the no-treatment group taken as 0% and the cell lysis buffer-treated group taken as 100%. The test was conducted in triplicate in three wells each, and the average values were used as adopted values.

[1] = type: physicochemical; details: Tris-hydrochloric acid buffer (pH 7.5) 50 mmol/L, magnesium chloride 5 mmol/L, evaluation compound 1 µmol/L, 37°C, 60 minutes, average of duplicate
Summary of the method: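 Conversion of compounds to brexpiprazole measured in buffer at 37°C, in duplicate: compound added after 3 min pre-incubation of reaction solution, and reaction stopped at 0 or 60 min with acetonitrile/isopropanol (4:1) containing internal standards. Quantified against calibration samples at 0.01, 0.1 and 1 µmol/L.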

HL-60 cells = experiment: in vitro; type: cell-based, human; details: 300 µmol/L, about 24 hours; for cytotoxicity (%) Evaluation compound results: PMA-differentiated HL-60 cells, LDH activity, no-treatment group 0%, cell lysis buffer-treated group 100%
Method: as §1, §2, §3

[2] = Dog irritation study (subcutaneous administration); type: in vivo, dogs; details: stated in the cytotoxicity method, no details
Method: Male beagle dogs were purchased at the age of 5-7 months from Kitayama Labes Co., Ltd. and used in the experiment after acclimatization. The breeding environment was as follows: feeding: 250 g of solid feed once a day, water intake: unlimited, number of animals per cage: 1, temperature: 21-25°C, humidity: 50-70%, lighting time: 7:00-19:00. The test formulation was subcutaneously administered to dogs anesthetized with 25 mg/kg thiopental sodium using a plastic syringe at a dose of 10 mg/kg per formulation, changing the position on the back. […] The collected tissues were fixed in 10% neutral buffered formalin, and hematoxylin and eosin-stained specimens were prepared for histopathological examination.

Compound | Concentration of brexpiprazole formed [1] [nM] | Concentration of evaluation compound decreased [1] [nM] | cytotoxicity at 24 h, 300 µM (in vitro) [%] | cytotoxicity (%) Evaluation compound results (HL-60 cells) [%] | cytotoxicity compared with control compounds (in words) (HL-60 cells) | irritation when subcutaneously administered to dogs [2]
O=c1ccc2ccc(OCCCC[N+]3(COP(=O)([O-])OCCCO)CCN(c4cccc5sccc45)CC3)cc2[nH]1 [EX 6, (4-(benzo[b]thiophen-4-yl)-1-(4-((2-oxo-1,2-dihydroquinolin-7-yl)oxy)butyl)piperazin-1-ium-1-yl)methyl (3-hydroxypropyl) phosphate] | 0 | -110 | 16 | – | – | –
CC(=O)OCCCOP(=O)([O-])OC[N+]1(CCCCOc2ccc3ccc(=O)[nH]c3c2)CCN(c2cccc3sccc23)CC1 [EX 15, 3-acetoxypropyl ((4-(benzo[b]thiophen-4-yl)-1-(4-((2-oxo-1,2-dihydroquinolin-7-yl)oxy)butyl)piperazin-1-ium-1-yl)methyl)phosphate] | 0 | 0 | 3 | – | – | –
CC(C)(C)[Si](C)(C)OCCCCOP(=O)([O-])OC[N+]1(CCCCOc2ccc3ccc(=O)[nH]c3c2)CCN(c2cccc3sccc23)CC1 [EX 60] | 0 | 90 | – | 16 | – | –
COCCn1nc(C(=O)OCOP(=O)([O-])OC[N+]2(CCCCOc3ccc4ccc(=O)[nH]c4c3)CCN(c3cccc4sccc34)CC2)c2ccccc21 [EX 82] | 0 | 20 | – | -2 | – | –
COCCN(CCOC)P(=O)([O-])OC[N+]1(CCCCOc2ccc3ccc(=O)[nH]c3c2)CCN(c2cccc3sccc23)CC1 [EX 153] | 0 | -10 | – | -7 | – | –
O=C(OC[N+]1(CCCCOc2ccc3ccc(=O)[nH]c3c2)CCN(c2cccc3sccc23)CC1)N1CCCCC1.[I-] [REX 4, 4-(benzo[b]thiophen-4-yl)-1-(4-((2-oxo-1,2-dihydroquinolin-7-yl)oxy)butyl)-1-(((piperidine-1-carbonyl)oxy)methyl)piperazin-1-ium iodide, reference compound] | – | – | – | 83 | stronger cytotoxicity than that of the Reference Example 3 compound | –
CCCCCC(=O)OCn1c(=O)ccc2ccc(OCCCCN3CCN(c4cccc5sccc45)CC3)cc21 [Reference Example 3 compound, (7-(4-(4-(benzo[b]thiophen-4-yl)piperazin-1-yl)butoxy)-2-oxoquinolin-1(2H)-yl)methyl hexanoate] | – | – | – | – | – | showed irritation

Now from value to molecule, other results behind:

Concentration of brexpiprazole formed [1] [nM] | Concentration of evaluation compound decreased [1] [nM] | Compound | cytotoxicity at 24 h, 300 µM (in vitro) [%] | cytotoxicity (%) Evaluation compound results (HL-60 cells) [%] | cytotoxicity compared with control compounds (in words) (HL-60 cells) | irritation when subcutaneously administered to dogs [2]
0 | -60 | COCCOCCOP(=O)([O-])OC[N+]1(CCCCOc2ccc3ccc(=O)[nH]c3c2)CCN(c2cccc3sccc23)CC1 [EX 7, (4-(benzo[b]thiophen-4-yl)-1-(4-((2-oxo-1,2-dihydroquinolin-7-yl)oxy)butyl)piperazin-1-ium-1-yl)methyl (2-(2-methoxyethoxy)ethyl)phosphate] | -4 | – | – | –
10 | 70 | CCOC(=O)COP(=O)([O-])OC[N+]1(CCCCOc2ccc3ccc(=O)[nH]c3c2)CCN(c2cccc3sccc23)CC1 [EX 8, (4-(benzo[b]thiophen-4-yl)-1-(4-((2-oxo-1,2-dihydroquinolin-7-yl)oxy)butyl)piperazin-1-ium-1-yl)methyl (2-ethoxy-2-oxoethyl)phosphate] | 15 | – | – | –
0 | 30 | CC(C)OCCOP(=O)([O-])OC[N+]1(CCCCOc2ccc3ccc(=O)[nH]c3c2)CCN(c2cccc3sccc23)CC1 [EX 13, (4-(benzo[b]thiophen-4-yl)-1-(4-((2-oxo-1,2-dihydroquinolin-7-yl)oxy)butyl)piperazin-1-ium-1-yl)methyl (2-isopropoxyethyl)phosphate] | -5 | – | – | –
0 | 80 | O=c1ccc2ccc(OCCCC[N+]3(COP(=O)([O-])OCCN4CCOCC4)CCN(c4cccc5sccc45)CC3)cc2[nH]1 [EX 14, (4-(benzo[b]thiophen-4-yl)-1-(4-((2-oxo-1,2-dihydroquinolin-7-yl)oxy)butyl)piperazin-1-ium-1-yl)methyl (2-morpholinoethyl)phosphate] | -10 | – | – | –
0 | 10 | CCCCCC(=O)OCOP(=O)([O-])OC[N+]1(CCCCOc2ccc3ccc(=O)[nH]c3c2)CCN(c2cccc3sccc23)CC1 [EX 16, (4-(benzo[b]thiophen-4-yl)-1-(4-((2-oxo-1,2-dihydroquinolin-7-yl)oxy)butyl)piperazin-1-ium-1-yl)methyl ((hexanoyloxy)methyl)phosphate] | 17 | – | – | –
0 | 70 | CCCCCCCCCC(=O)OCOP(=O)([O-])OC[N+]1(CCCCOc2ccc3ccc(=O)[nH]c3c2)CCN(c2cccc3sccc23)CC1 [EX 17, (4-(benzo[b]thiophen-4-yl)-1-(4-((2-oxo-1,2-dihydroquinolin-7-yl)oxy)butyl)piperazin-1-ium-1-yl)methyl ((decanoyloxy)methyl)phosphate] | 8 | – | – | –
0 | -10 | O=C(OCOP(=O)([O-])OC[N+]1(CCCCOc2ccc3ccc(=O)[nH]c3c2)CCN(c2cccc3sccc23)CC1)C1CCCCC1 [EX 18, (4-(benzo[b]thiophen-4-yl)-1-(4-((2-oxo-1,2-dihydroquinolin-7-yl)oxy)butyl)piperazin-1-ium-1-yl)methyl (((cyclohexanecarbonyl)oxy)methyl)phosphate] | 8 | – | – | –
0 | -70 | O=C(OCOP(=O)([O-])OC[N+]1(CCCCOc2ccc3ccc(=O)[nH]c3c2)CCN(c2cccc3sccc23)CC1)OC1CCCCC1 [EX 19, (4-(benzo[b]thiophen-4-yl)-1-(4-((2-oxo-1,2-dihydroquinolin-7-yl)oxy)butyl)piperazin-1-ium-1-yl)methyl ((((cyclohexyloxy)carbonyl)oxy)methyl)phosphate] | 16 | – | – | –
0 | 90 | CCOC(=O)CCCC(=O)OCOP(=O)([O-])OC[N+]1(CCCCOc2ccc3ccc(=O)[nH]c3c2)CCN(c2cccc3sccc23)CC1 [EX 68] | -6 | – | – | –
0 | 0 | CCCCOCCOCCOP(=O)([O-])OC[N+]1(CCCCOc2ccc3ccc(=O)[nH]c3c2)CCN(c2cccc3sccc23)CC1 [EX 99] | -6 | – | – | –
